Assay results reported in US6638956B2, “Pesticidal 1-arylpyrazoles” (Rhone-Poulenc, Inc., priority 1996, dated 2003).

Columns and labels:
[1] = test system: Lucilia sericata, sleep blow fly; conditions: disclosed in WO 92/13451; cited from earlier work

melting point	Structure (SMILES)	activity against Lucilia sericata [1]
234 to 235 °C	C[S+]([O-])c1c(C(=N)NO)nn(-c2ncc(C(F)(F)F)cc2Cl)c1N (centres unmarked) [Compound 54, 5-Amino-1-[3-chloro-5-(trifluoromethyl)-2-pyridinyl]-4-methylsulfinyl-N-hydroxy-1H-pyrazole-3-carboximidamide]	–
210 to 213 °C	CC[S+]([O-])c1c(C=NO)nn(-c2c(Cl)cc(C(F)(F)F)cc2Cl)c1C (centres unmarked) [Compound 34, 1-[2,6-Dichloro-4-(trifluoromethyl)phenyl]-4-ethylsulfinyl-5-methyl-1H-pyrazole-3-carboxaldehyde oxime]	–
207 to 208 °C	CSc1c(C(=N)NO)nn(-c2c(Cl)cc(C(F)(F)F)cc2Cl)c1N [Compound 47, 5-Amino-1-[2,6-dichloro-4-(trifluoromethyl)phenyl]-N-hydroxy-4-methylthio-1H-pyrazole-3-carboximidamide]	–
107 to 111 °C	N=C(NO)c1nn(-c2c(Cl)cc(C(F)(F)F)cc2Cl)c(N)c1S(=O)(=O)CCF [Compound 52, 5-Amino-1-[2,6-dichloro-4-(trifluoromethyl)phenyl]-N-hydroxy-4-(2-fluoroethylsulfonyl)-1H-pyrazole-3-carboximidamide]	–
72 to 75 °C	N=C(NO)c1nn(-c2c(Cl)cc(C(F)(F)F)cc2Cl)c(C=O)c1SC(F)(F)F [Compound 22, 1-[2,6-Dichloro-4-(trifluoromethyl)phenyl]-5-formyl-N-hydroxy-4-trifluoromethylthio-1H-pyrazole-3-carboximidamide]	–
140 to 145 °C	CONC(=N)c1nn(-c2c(Cl)cc(C(F)(F)F)cc2Cl)c(N)c1[S+](C)[O-] (centres unmarked) [Compound 49, 5-Amino-1-[2,6-dichloro-4-(trifluoromethyl)phenyl]-N-methoxy-4-methylsulfinyl-1H-pyrazole-3-carboximidamide]	–
239 to 240 °C	C[S+]([O-])c1cn(-c2c(Cl)cc(C(F)(F)F)cc2Cl)nc1C=NO (centres unmarked) [Compound 20, 1-[2,6-Dichloro-4-(trifluoromethyl)phenyl]-4-methylsulfinyl-1H-pyrazole-3-carboxaldehyde oxime]	–
204 to 206 °C	CC[S+]([O-])c1c(C=NO)nn(-c2c(Cl)cc(OC(F)(F)F)cc2Cl)c1N (centres unmarked) [Compound 37, 5-Amino-1-[2,6-dichloro-4-(trifluoromethoxy)phenyl]-4-ethylsulfinyl-1H-pyrazole-3-carboxaldehyde oxime]	–
213 to 214 °C	CCNC1(c2c(Cl)cc(C(F)(F)F)cc2Br)NNC(C(=N)NO)=C1[S+](C)[O-] (centres unmarked) [Compound 62, 5-[2-Bromo-6-chloro-4-(trifluoromethyl)phenyl]-5-ethylamino-4-methylsulfinyl-N-hydroxy-1H-pyrazole-3-carboximidamide]	–
139 to 142 °C	CN=C(NOC)c1nn(-c2c(Cl)cc(C(F)(F)F)cc2Cl)c(N)c1[S+](C)[O-] (centres unmarked) [Compound 50, 5-Amino-1-[2,6-dichloro-4-(trifluoromethyl)phenyl]-N-methoxy-N′-methyl-4-methylsulfinyl-1H-pyrazole-3-carboximidamide]	–
–	N#Cc1nc(-c2c(C=NO)nn(-c3c(Cl)cc(C(F)(F)F)cc3Cl)c2Cl)[nH]c1C#N [5-chloro-1-[2,6-dichloro-4-(trifluoromethyl)phenyl]-4-(4,5-dicyano-1H-imadazol-2-yl)-3-hydroxyiminomethyl-1H-pyrazole]	activity against a single species
68 to 71 °C	CC(=NO)c1nn(-c2c(Cl)cc(C(F)(F)F)cc2Cl)c(N)c1[S+](C)[O-] (centres unmarked) [Compound 39, 3-Acetyl-5-amino-1-[2,6-dichloro-4-(trifluoromethyl)phenyl]-4-methylsulfinyl-1H-pyrazole oxime]	–
128 to 130 °C	CC(C)ON=Cc1nn(-c2c(Cl)cc(C(F)(F)F)cc2Cl)c(N)c1[S+](C)[O-] (centres unmarked) [Compound 24, 5-Amino-1-[2,6-dichloro-4-(trifluoromethyl)phenyl]-4-methylsulfinyl-1H-pyrazole-3-carboxaldehyde O-(isopropyl)oxime]	–
122 °C	CCCCCCCC(=O)NNC(=N)c1nn(-c2c(Cl)cc(C(F)(F)F)cc2Cl)c(N)c1[S+](C)[O-] (centres unmarked) [Compound 71, 5-Amino-1-[2,6-dichloro-4-(trifluoromethyl)phenyl]-4-methylsulfinyl-N-(n-heptylcarbonyl)amino-1H-pyrazole-3-carboximidamide]	–
131 to 134 °C	C[S+]([O-])c1c(C(=N)NO)nn(-c2c(Cl)cc(C(F)(F)F)cc2Cl)c1NCCS(=O)(=O)c1ccccc1 (centres unmarked) [Compound 60, 1-[2,6-Dichloro-4-(trifluoromethyl)phenyl]-4-methylsulfinyl-5-[2-(phenylsulfonyl)ethylamino]-N-hydroxy-1H-pyrazole-3-carboximidamide]	–
212 to 215 °C	N=C(NO)c1nn(-c2c(Cl)cc(C(F)(F)F)cc2Cl)c(N)c1[S+]([O-])CCF (centres unmarked) [Compound 51, 5-Amino-1-[2,6-dichloro-4-(trifluoromethyl)phenyl]-N-hydroxy-4-(2-fluoroethylsulfinyl)-1H-pyrazole-3-carboximidamide]	–
158 to 161 °C	CCNc1c([S+](C)[O-])c(C=NO)nn1-c1c(Cl)cc(C(F)(F)F)cc1Cl (centres unmarked) [Compound 2, 1-[2,6-Dichloro-4-(trifluoromethyl)phenyl]-5-ethylamino-4-methylsulfinyl-1H-pyrazole-3-carboxaldehyde oxime]	–
171 to 173 °C	COC(=O)ON=Cc1nn(-c2c(Cl)cc(C(F)(F)F)cc2Cl)c(N)c1SC [Compound 15, 5-Amino-1-[2,6-dichloro-4-(trifluoromethyl)phenyl]-4-methylthio-1H-pyrazole-3-carboxaldehyde O-(methoxycarbonyl)oxime]	–
219 to 221 °C (dec.)	C[S+]([O-])c1c(C=NO)nn(-c2c(Cl)cc(C(F)(F)F)cc2Cl)c1N (centres unmarked) [Compound 1, 5-Amino-1-[2,6-dichloro-4-(trifluoromethyl)phenyl]-4-methylsulfinyl-1H-pyrazole-3-carboxaldehyde oxime]	–
150 to 154 °C	C[S+]([O-])c1c(C=NO[Si](C)(C)C(C)(C)C)nn(-c2c(Cl)cc(C(F)(F)F)cc2Cl)c1N (centres unmarked)	–
136 to 146 °C	Nc1c(C(F)(F)F)c(C=NO)nn1-c1c(Cl)cc(C(F)(F)F)cc1Cl [Compound 38, 5-Amino-1-[2,6-dichloro-4-(trifluoromethyl)phenyl]-4-trifluoromethyl-1H-pyrazole-3-carboxaldehyde oxime]	–
119 to 120 °C	C[S+]([O-])c1c(C(=N)NO)nn(-c2c(Cl)cc(C(F)(F)F)cc2Cl)c1NCC(N)=O (centres unmarked) [Compound 59, 5-(Aminocarbonylmethylamino)-1-[2,6-dichloro-4-(trifluoromethyl)phenyl]-N-hydroxy-4-methylsulfinyl-1H-pyrazole-3-carboximidamide]	–
195 °C	CC[S+]([O-])c1c(C=NO)nn(-c2c(Cl)cc(C(F)(F)F)cc2Cl)c1N (centres unmarked) [Compound 5, 5-Amino-1-[2,6-dichloro-4-(trifluoromethyl)phenyl]-4-ethylsulfinyl-1H-pyrazole-3-carboxaldehyde oxime]	–
160 to 162.5 °C	CSc1c(C=NO)nn(-c2c(Cl)cc(C(F)(F)F)cc2Cl)c1C [Compound 29, 1-[2,6-Dichloro-4-(trifluoromethyl)phenyl]-5-methyl-4-methylthio-1H-pyrazole-3-carboxaldehyde oxime]	–
163 to 169 °C	Nc1c(SC(F)(F)F)c(C=NO)nn1-c1c(Cl)cc(C(F)(F)F)cc1Cl [Compound 6, 5-Amino-1-[2,6-dichloro-4-(trifluoromethyl)phenyl]-4-trifluoromethylthio-1H-pyrazole-3-carboxaldehyde oxime]	–
194 to 196 °C	C#CCNc1c([S+](C)[O-])c(C(=N)NO)nn1-c1c(Cl)cc(C(F)(F)F)cc1Cl (centres unmarked) [Compound 67, 1-[2,6-Dichloro-4-(trifluoromethyl)phenyl]-4-methylsulfinyl-5-[(prop-2-ynyl)amino]-N-hydroxy-1H-pyrazole-3-carboximidamide]	–
